From ChEMBL document CHEMBL1697781, “Assessment of the health effects of chemicals in humans: II. Construction of an adverse effects database for QSAR modeling” (Curr Drug Discov Technol, 2004)

Tests used:
Details in all cases: human; call rule not given here
[1] = test system: Hepatotoxicity; experiment: FDA HLAED, serum glutamic pyruvic transaminase (SGPT) increase
[2] = test system: Hepatotoxicity; experiment: FDA HLAED, serum glutamic oxaloacetic transaminase (SGOT) increase
[3] = test system: Hepatotoxicity; experiment: FDA HLAED, gamma-glutamyl transferase (GGT) increase
[4] = test system: Hepatotoxicity; experiment: FDA HLAED, alkaline phosphatase increase
[5] = test system: Hepatotoxicity; experiment: FDA HLAED, lactate dehydrogenase (LDH) increase
[6] = test system: Hepatotoxicity; experiment: FDA HLAED, liver enzyme composite activity
Throughout, for GGT Increase - Index Value: reference of the scale not given here.
Throughout, for LDH Increase - Index Value: reference of the scale not given here.

Compound	SGPT Increase - Activity Score [1]	SGPT Increase - Index Value [1]	SGPT Increase - Number of Reports [1]	SGOT Increase - Activity Score [2]	SGOT Increase - Index Value [2]	SGOT Increase - Number of Reports [2]	GGT Increase - Activity Score [3]	GGT Increase - Index Value [3]	GGT Increase - Number of Reports [3]	Alkaline Phosphatase Increase - Activity Score [4]	Alkaline Phosphatase Increase - Index Value [4]	Alkaline Phosphatase Increase - Number of Reports [4]	LDH Increase - Activity Score [5]	LDH Increase - Index Value [5]	LDH Increase - Number of Reports [5]	Composite Activity - Active [6]	Composite Activity - Marginal [6]	Composite Activity - Score [6]	other results
CCC(=O)O[C@H]1CC[C@H]2[C@@H]3CCC4=CC(=O)CC[C@]4(C)[C@H]3CC[C@]12C [TESTOSTERONE PROPIONATE]	Inactive	7.2	< 4	Inactive	4.8	< 4	Inactive	4.8	< 4	Inactive	0	< 4	Inactive	2.4	< 4	0	0	Inactive	
COCC(=O)Nc1c(I)c(C(=O)NCC(O)CO)c(I)c(C(=O)N(C)CC(O)CO)c1I (configuration not stated) [IOPROMIDE]	Inactive	0	< 4	Inactive	0	< 4	Inactive	0	< 4	Inactive	0	< 4	Inactive	0	< 4	0	0	Inactive	
CC(C)(C)NC(=O)[C@@H]1CN(Cc2cccnc2)CCN1C[C@@H](O)C[C@@H](Cc1ccccc1)C(=O)N[C@H]1c2ccccc2C[C@H]1O.O	Active	116.4	>= 4	Active	137	>= 4	Active	13.7	< 4	Active	54.8	>= 4	Active	44.5	>= 4	5	0	Active	
C[C@](N)(Cc1ccc(O)cc1)C(=O)O [METYROSINE]	Inactive	0	< 4	Inactive	0	< 4	Inactive	0	< 4	Inactive	0	< 4	Inactive	0	< 4				Composite Activity - Active ([6]; Liver): 0; Composite Activity - Marginal ([6]; Liver): 0; Composite Activity - Score ([6]; Liver): Inactive
OC(c1cc(C(F)(F)F)nc2c(C(F)(F)F)cccc12)C1CCCCN1 (configuration not stated) [MEFLOQUINE]	Active	32.5	>= 4	Active	25.3	>= 4	Active	18	>= 4	Inactive	7.2	< 4	Inactive	0	< 4	3	0	Active	
O=C(O)[C@@H](S)[C@@H](S)C(=O)O	Active	131.6	< 4	Active	175.4	>= 4	Active	87.7	< 4	Active	175.4	>= 4	Inactive	43.9	< 4	4	0	Active	
O=C(O)c1cc(/N=N/c2ccc(O)c(C(=O)O)c2)ccc1O [OLSALAZINE]	Inactive	1.5	< 4	Inactive	2.2	< 4	Inactive	0	< 4	Inactive	0.7	< 4	Inactive	0.7	< 4	0	0	Inactive	
FCOC(C(F)(F)F)C(F)(F)F [SEVOFLURANE]	Inactive	0	< 4	Inactive	4.6	< 4	Inactive	0	< 4	Inactive	3.1	< 4	Inactive	1.6	< 4	0	0	Inactive	
CC(C)(C)NC[C@H](O)COc1ccccc1C1CCCC1 [PENBUTOLOL]	Inactive	0	< 4	Inactive	0	< 4	Inactive	0	< 4	Inactive	0	< 4	Inactive	0	< 4	0	0	Inactive	
